Measurements from patent publication US20110003865A1, “NOVEL 2-DIETHYLAMINO-3-AMIDO-6-AMINO-PYRIDINE DERIVATIVES USEFUL AS POTASSIUM CHANNEL ACTIVATORS” (priority 2007, published 2011).

Target: T1, human Kv72+3 channels (Homo sapiens, UniProt O43525+O43526)
T1 construct: expressed in transfected cells; host or cells: HEK293
Experiment: Patch-clamp, HEK293 cells stably expressing human Kv7.2+3 channels
Type: cell-based
Details: conc. 0.03 μM, −30 mV, 20 ms; current relative to baseline current defined as 100%
From the text: The effect obtained by these channel activators is described as a percentage increase in baseline current at a given concentration. The baseline current is defined as 100%, and an increase in current is expressed relative to this, i.e. an increase from 1 nA to 1.2 nA is reported as 120%.

T1 sequence (O43526 whole entry): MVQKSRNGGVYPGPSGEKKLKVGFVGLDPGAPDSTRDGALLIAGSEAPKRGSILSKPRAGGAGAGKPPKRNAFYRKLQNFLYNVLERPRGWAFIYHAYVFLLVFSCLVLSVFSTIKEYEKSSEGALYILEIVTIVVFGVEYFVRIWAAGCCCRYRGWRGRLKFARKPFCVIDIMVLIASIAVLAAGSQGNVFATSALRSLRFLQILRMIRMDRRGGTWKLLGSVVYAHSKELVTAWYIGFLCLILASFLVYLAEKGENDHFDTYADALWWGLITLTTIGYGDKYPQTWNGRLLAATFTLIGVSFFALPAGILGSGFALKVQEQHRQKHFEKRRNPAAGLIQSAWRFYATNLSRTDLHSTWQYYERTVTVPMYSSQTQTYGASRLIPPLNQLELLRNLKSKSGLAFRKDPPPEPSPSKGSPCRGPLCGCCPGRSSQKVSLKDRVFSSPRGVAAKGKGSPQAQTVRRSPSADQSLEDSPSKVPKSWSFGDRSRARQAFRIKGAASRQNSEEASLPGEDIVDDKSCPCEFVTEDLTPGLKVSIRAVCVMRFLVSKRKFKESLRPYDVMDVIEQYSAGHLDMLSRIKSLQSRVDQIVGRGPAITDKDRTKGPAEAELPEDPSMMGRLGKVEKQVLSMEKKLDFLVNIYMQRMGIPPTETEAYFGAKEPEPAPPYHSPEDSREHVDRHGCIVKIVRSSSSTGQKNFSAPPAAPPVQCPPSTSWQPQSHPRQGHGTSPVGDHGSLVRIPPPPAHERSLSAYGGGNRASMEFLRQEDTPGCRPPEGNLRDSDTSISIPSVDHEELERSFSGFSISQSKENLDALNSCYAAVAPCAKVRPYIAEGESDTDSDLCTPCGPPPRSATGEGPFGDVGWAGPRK
T1 sequence (O43525 whole entry): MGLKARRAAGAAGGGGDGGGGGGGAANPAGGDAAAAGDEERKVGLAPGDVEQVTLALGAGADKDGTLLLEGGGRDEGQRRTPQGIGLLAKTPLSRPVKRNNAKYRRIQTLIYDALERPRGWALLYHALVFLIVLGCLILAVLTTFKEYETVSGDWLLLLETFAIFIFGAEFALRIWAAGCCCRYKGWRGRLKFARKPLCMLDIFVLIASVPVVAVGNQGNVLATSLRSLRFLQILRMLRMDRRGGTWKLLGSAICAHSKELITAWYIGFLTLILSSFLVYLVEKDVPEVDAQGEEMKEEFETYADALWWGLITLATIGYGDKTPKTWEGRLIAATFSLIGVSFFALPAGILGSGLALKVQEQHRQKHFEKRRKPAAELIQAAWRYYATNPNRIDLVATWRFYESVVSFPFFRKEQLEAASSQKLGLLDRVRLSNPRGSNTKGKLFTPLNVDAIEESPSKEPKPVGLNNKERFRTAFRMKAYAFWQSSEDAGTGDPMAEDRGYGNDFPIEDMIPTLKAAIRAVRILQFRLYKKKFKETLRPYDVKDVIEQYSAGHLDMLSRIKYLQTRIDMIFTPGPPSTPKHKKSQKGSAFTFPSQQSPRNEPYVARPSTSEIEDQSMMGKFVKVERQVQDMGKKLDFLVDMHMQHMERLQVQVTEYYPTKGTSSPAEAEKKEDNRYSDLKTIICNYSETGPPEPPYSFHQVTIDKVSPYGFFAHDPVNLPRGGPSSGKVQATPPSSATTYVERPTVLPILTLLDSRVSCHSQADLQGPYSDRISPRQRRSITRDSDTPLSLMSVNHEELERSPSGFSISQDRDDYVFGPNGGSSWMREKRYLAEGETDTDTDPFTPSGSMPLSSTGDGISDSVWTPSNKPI

Row | Structure (SMILES) | IK (%)
1 | CCN(CC)c1nc(NCc2ccc(F)cc2)ccc1NC(=O)[C@@H]1C[C@H]1c1ccccc1 (relative stereo) [Compound 7, trans-2-Phenyl-cyclopropanecarboxylic acid [2-diethylamino-6-(4-fluoro-benzylamino)-pyridin-3-yl]-amide] | 520%
2 | CCN(CC)c1nc(NCc2ccc(F)cc2)ccc1NC(=O)[C@@H](C)c1ccccc1 [Compound 4, (S)—N-[2-Diethylamino-6-(4-fluoro-benzylamino)-pyridin-3-yl]-2-phenyl-propionamide] | 334%
3 | CCN(CC)c1nc(NCc2ccc(F)cc2)ccc1NC(=O)Cc1ccc(C(F)(F)F)c(F)c1 [Compound 3, N-[2-Diethylamino-6-(4-fluoro-benzylamino)-pyridin-3-yl]-2-(3-fluoro-4-trifluoromethyl-phenyl)-acetamide] | 282%
4 | CCN(CC)c1nc(NCc2ccc(F)cc2)ccc1NC(=O)CC(C)(C)C [Compound 9, N-[2-Diethylamino-6-(4-fluoro-benzylamino)-pyridin-3-yl]-3,3-dimethyl-butyramide] | 550%
5 | CCN(CC)c1nc(NCc2ccc(F)cc2)ccc1NC(=O)Cc1cc(F)cc(F)c1 [Compound 1, N-[2-Diethylamino-6-(4-fluoro-benzylamino)-pyridin-3-yl]-2-(3,5-difluoro-phenyl)-acetamide] | 1247%
